Source: PMC11864979, “First-in-class ultralong-target-residence-time p38α inhibitors as a mitosis-targeted therapy for colorectal cancer” (Nature Cancer, 2025)
Values joined by “and” are separate entries in the source; they are usually repeats but may differ in a detail not shown here. Equal values may be shown once. Read-outs that look alike come from different tables or passages of the source.

Key:
KAP organoids = experiment: cell viability in KAP organoids (CellTiter-Glo); assay type: cell-based, mouse; conditions: for induction of cell death in KAP organoids (in words): viability assay
Procedure: For in vitro treatment studies, organoids were mechanically dissociated and digested using TrypLE supplemented with 100 µg ml^−1 DNaseI and 10.5 µM Y-27632 dihydrochloride (Invitrogen) at 37 °C. A total of 1,000–2,000 single cells were plated per well in white 96-well plates (Greiner) in culture medium containing 10% GFR Matrigel or Cultrex BME. The treatment with doxycycline (5 µg ml^−1), pharmacological inhibitors or corresponding volumes of DMSO was started 24 h after plating. Doxycycline was obtained from Sigma-Aldrich. […] Cell viability was measured by means of CellTiter-Glo 3D or CellTiter-Glo 2.0 reagent (Promega) according to the manufacturers’ instructions and the Infinite M Plex reader (Tecan, i-control version 3.9.1 software). Results were normalized to vehicle (DMSO) or to shNC. For cell-doubling assays, the cell number was quantified at the corresponding time points using Guava EasyCyte flow cytometer (Luminex, CytoSoft v5.2 software).

[1] = cell viability after 2015, Navitoclax or 2015 + Navitoclax (Fig. 5f); assay type: cell-based; parameters: concentration or dose not given beside the values; conditions: replicates
subcutaneous KAP CRCs = experiment: treatment of subcutaneous KAP tumors in wild-type mice; assay type: in vivo, mouse; conditions: 6 d of treatment; single tumors; Fig. 5i
Procedure: Subcutaneous injection, splenic seeding or cecum injection of organoids was performed in 8–10-week-old C57BL/6 N/Crl, Rag2^−/− (B6.Cg-Rag2^tm1.1Cgn/J), or CB17 Scid beige (CB17.Cg-Prkdc^scidLyst^bg-J/Crl) mice, obtained from Charles River. The organoids were dissociated into single cells, washed with PBS and injected in a 1:1 mixture of PBS and Matrigel. For murine organoids, 1 × 10^5 cells were injected into the left and right flanks or the spleen capsule and 2 × 10^6 cells were injected into the cecum wall. For human organoids, 4 × 10^5 cells were injected into the flanks of CB17 Scid beige mice. For splenic seeding and cecum injection, mice were anaesthetized using ketamine (100 mg kg^−1, intraperitoneally) and xylazin (10 mg/kg, intraperitoneally) in NaCl and a small laparotomy below the thorax was performed.
No mice were excluded during treatment studies.

p38α = p38α (Homo sapiens, UniProt Q16539); experiment: p38α inhibition on isolated enzyme (ELISA, ATF2 substrate); assay type: biochemical; conditions: Fig. 2d; replicates
Procedure: For evaluating p38α inhibition on isolated enzyme, an ELISA assay was performed[57]. […] Compounds were dissolved in DMSO (10 mM) and diluted (0.01–10 µM) in a kinase buffer containing 12 ng per 50 µl p38α protein (provided by J. Schultz, University of Tübingen), 50 mM Tris pH 7.5, 10 mM MgCl2, 10 mM β-glycerophosphate, 100 µg ml^−1 BSA, 1 mM dithiothreitol, 0.1 mM Na3VO4 and 100 µM ATP. Then, 50 µl of each sample was pipetted into the corresponding wells and incubated for 1 h at 37 °C. […] Finally, 50 µl of TMB substrate (BD Bioscience) was added to the wells. After 5 min, the reaction was stopped by adding 25 µl of 1 N HCl and the samples were measured photometrically at 450 nm with an ELISA reader (Molecular Devices, FilterMax F5) using SOFTmax PRO software (version 6.5.1).

[2] = Mus musculus, 24 h, read-out: Cell viability (%), Fig. 1d, replicates

Sequence of p38α (Q16539 whole entry): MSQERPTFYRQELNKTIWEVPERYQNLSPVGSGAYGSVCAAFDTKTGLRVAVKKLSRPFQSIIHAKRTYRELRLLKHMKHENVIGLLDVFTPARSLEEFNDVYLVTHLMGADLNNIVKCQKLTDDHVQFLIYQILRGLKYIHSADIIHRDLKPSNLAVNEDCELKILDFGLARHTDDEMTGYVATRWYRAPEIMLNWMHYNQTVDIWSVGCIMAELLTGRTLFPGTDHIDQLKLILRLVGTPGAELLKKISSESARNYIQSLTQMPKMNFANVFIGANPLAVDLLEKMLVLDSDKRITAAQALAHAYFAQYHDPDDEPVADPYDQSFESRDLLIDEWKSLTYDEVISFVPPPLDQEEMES

SMILES | induction of cell death in KAP organoids (in words) (KAP organoids) | viability at 10 µM (KAP organoids; [2]) | further results
Cc1ccc(-n2nc(C(C)(C)C)cc2NC(=O)Nc2ccc(OCCN3CCOCC3)c3ccccc23)cc1 [BIRB-796, reference compound] | failed to inhibit p38α downstream signaling and induce cell death | – | –
CC1(C)CCC(c2ccc(Cl)cc2)=C(CN2CCN(c3ccc(C(=O)NS(=O)(=O)c4ccc(N[C@H](CCN5CCOCC5)CSc5ccccc5)c(S(=O)(=O)C(F)(F)F)c4)cc3)CC2)C1 [navitoclax, reference compound] | no therapeutic response | – | Cell viability [1]: 100.49% and 78.37% and 85.69%; Tumor volume (subcutaneous KAP CRCs): 87.5 mm³ and 126.0 mm³ and 144.0 mm³ and 112.5 mm³ and 100.0 mm³
CC(C)(C)Cn1c(N)nc2ccc(-c3[nH]c(C(C)(C)C)nc3-c3ccc(F)cc3)nc21 [LY2228820, ralimetinib, reference compound] | only a very weak induction of cell death | 77.8% | viability at 5 µM (KAP organoids; Mus musculus, 24 h, read-out: Cell viability (%), Fig. 1d, 5 µM, replicates): 93.3%
CNC(=O)c1ccc(C)c(-n2c(C)cc(OCc3ccc(F)cc3F)c(Br)c2=O)c1 [PH-797804, reference compound] | only a very weak induction of cell death | – | –
CNC(=O)c1ccc(C)c(-n2c(C)cc(OCc3ccc(F)cc3F)c(Br)c2=O)c1 [PH797804] | – | 84.1% | viability at 1 µM (KAP organoids; Mus musculus, 24 h, read-out: Cell viability (%), Fig. 1d, 1 µM, replicates): 92.1%; viability at 1 µM (KAP organoids; Mus musculus, read-out: Cell viability (% of DMSO), drug screen in KAP organoids, 1 µM concentration, n = 3, mean): 86.2%
CC(C)(C)Cn1c(N)nc2ccc(-c3[nH]c(C(C)(C)C)nc3-c3ccc(F)cc3)nc21 [LY222820] | – | – | IC50 (p38α): 7.81 nM and 4.31 nM and 10.9 nM
